Results from patent publication US20140120087A1, “TRIAZOLOPYRIDINES” (BAYER INTELLECTUAL PROPERTY GMBH, priority 2011, published 2014).
Values belong to the molecule of their own block, whether it stands above or below them.

Tests used:
Mps-1 kinase [1] = biological target: T1, Mps-1 kinase (Homo sapiens, UniProt P33981); experiment: Mps-1 kinase assay with 10 μM ATP (TR-FRET)
T1 sequence (P33981 1-857): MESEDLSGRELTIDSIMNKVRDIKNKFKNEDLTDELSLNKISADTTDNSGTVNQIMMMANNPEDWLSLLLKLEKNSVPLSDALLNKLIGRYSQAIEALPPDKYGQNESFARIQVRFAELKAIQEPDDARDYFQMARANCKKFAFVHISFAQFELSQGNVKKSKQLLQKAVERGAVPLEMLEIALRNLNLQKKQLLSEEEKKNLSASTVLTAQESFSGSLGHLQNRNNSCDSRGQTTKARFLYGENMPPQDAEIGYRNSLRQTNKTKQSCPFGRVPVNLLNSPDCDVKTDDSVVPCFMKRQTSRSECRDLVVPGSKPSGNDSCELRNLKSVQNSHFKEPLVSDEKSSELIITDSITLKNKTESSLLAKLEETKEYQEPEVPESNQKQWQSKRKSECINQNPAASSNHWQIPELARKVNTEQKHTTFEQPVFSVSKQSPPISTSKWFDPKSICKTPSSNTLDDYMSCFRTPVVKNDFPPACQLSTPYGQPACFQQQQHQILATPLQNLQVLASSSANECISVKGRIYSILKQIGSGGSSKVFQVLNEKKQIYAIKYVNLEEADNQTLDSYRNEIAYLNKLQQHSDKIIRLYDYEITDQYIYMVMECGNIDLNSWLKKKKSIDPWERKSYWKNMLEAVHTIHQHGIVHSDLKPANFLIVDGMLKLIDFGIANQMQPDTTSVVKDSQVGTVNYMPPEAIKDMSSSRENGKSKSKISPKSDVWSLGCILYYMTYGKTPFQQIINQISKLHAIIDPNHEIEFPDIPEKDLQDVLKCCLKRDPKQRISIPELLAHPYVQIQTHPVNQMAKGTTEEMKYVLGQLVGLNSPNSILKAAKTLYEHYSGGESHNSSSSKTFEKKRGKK

Mps-1 kinase [2] = biological target: T1, Mps-1 kinase; experiment: Mps-1 kinase assay with 2 mM ATP (TR-FRET)

SMILES: CS(=O)(=O)c1ccc(Nc2nc3ccc(-c4ccc(C(=O)NCc5ccc(F)cc5)cc4)cn3n2)c(OCC(F)(F)F)c1 [Example 02.27, N-(4-fluorobenzyl)-4-(2-{[4-(methylsulfonyl)-2-(2,2,2-trifluoroethoxy)-phenyl]amino}[1,2,4]triazolo[1,5-α]pyridin-6-yl)benzamide]
IC50 (Mps-1 kinase [2]): ≤ 1 nM
IC50 (Mps-1 kinase [1]): ≤ 1 nM

SMILES: COCCNC(=O)c1ccc(Nc2nc3ccc(-c4ccc(NC(=O)Cc5ccc(F)cc5)cc4)cn3n2)c(OC)c1 [Example 12.01, 4-{[6-(4-{[(4-fluorophenyl)-acetyl]amino}phenyl)[1,2,4]triazolo[1,5-a]pyridin-2-yl]amino}-3-methoxy-N-(2-methoxyethyl)benzamide]
IC50 (Mps-1 kinase [2]): ≤ 1 nM
IC50 (Mps-1 kinase [1]): ≤ 1 nM

SMILES: COc1cc([S@@+](C)[O-])ccc1Nc1nc2ccc(-c3ccc(C(=O)NCc4ccc(F)cc4)cc3)cn2n1 (stereo in doubt) [Example 12.51, N-(4-fluorobenzyl)-4-(2-{[2-methoxy-4-(methylsulfinyl)-phenyl]amino}[1,2,4]-triazolo[1,5-a]pyridin-6-yl)-benzamide]
IC50 (Mps-1 kinase [2]): 2.6 nM
IC50 (Mps-1 kinase [1]): ≤ 1 nM

SMILES: CCOc1cc(C(=O)NCCF)ccc1Nc1nc2ccc(-c3ccc(C(=O)NCc4ccc(F)cc4)cc3)cn2n1 [Example 12.57, 3-ethoxy-4-[(6-{4-[(4-fluoro-benzyl)carbamoyl]phenyl}-[1,2,4]triazolo[1,5-a]pyridin 2-yl)amino]-N-(2-fluoroethyl)benzamide]
IC50 (Mps-1 kinase [2]): ≤ 1 nM
IC50 (Mps-1 kinase [1]): ≤ 1 nM

SMILES: CCN(Cc1ccc(Nc2nc3ccc(-c4ccc(C(=O)NCc5ccc(F)cc5)cc4)cn3n2)c(OC)c1)C(C)(C)CO [Example 12.53, 4-{2-[(4-{[ethyl(1-hydroxy-2-methylpropan-2-yl)amino]-methyl}-2-methoxyphenyl)-amino][1,2,4]triazolo[1,5-a]pyridin-6-yl}-N-(4-fluoro-benzyl)benzamide]
IC50 (Mps-1 kinase [2]): 6.9 nM
IC50 (Mps-1 kinase [1]): ≤ 1 nM

SMILES: COc1cc(S(C)(=O)=O)ccc1Nc1nc2ccc(-c3ccc(C(=O)NCc4ccc(C)cc4)cc3)cn2n1 [Example 12.76, 4-(2-{[2-methoxy-4-(methyl-sulfonyl)phenyl]amino}-[1,2,4]triazolo[1,5-a]pyridin-6-yl)-N-(4-methyl-benzyl)benzamide]
IC50 (Mps-1 kinase [2]): 7.4 nM
IC50 (Mps-1 kinase [1]): ≤ 1 nM

SMILES: COc1cc(S(=O)(=O)NC(C)(C)C)ccc1Nc1nc2ccc(-c3ccc(C(=O)NCc4ccc(F)cc4)cc3)cn2n1 [Example 12.52, 4-(2-{[4-(tert-butyl-sulfamoyl)-2-methoxy-phenyl]amino}[1,2,4]-triazolo[1,5-a]pyridin-6-yl)-N-(4-fluorobenzyl)-benzamide]
IC50 (Mps-1 kinase [2]): 14 nM
IC50 (Mps-1 kinase [1]): ≤ 1 nM

SMILES: CCOc1cc(S(=O)(=O)CC)ccc1Nc1nc2ccc(-c3ccc(NC(=O)Cc4ccc(F)cc4)cc3)cn2n1 [Example 01.33, N-[4-(2-{[2-ethoxy-4-(ethylsulfonyl)phenyl]amino}[1,2,4]triazolo[1,5-α]-pyridin-6-yl)phenyl]-2-(4-fluorophenyl)acetamide]
IC50 (Mps-1 kinase [2]): 1.3 nM
IC50 (Mps-1 kinase [1]): ≤ 1 nM

SMILES: COc1cc(C(=O)NCCCF)ccc1Nc1nc2ccc(-c3ccc(NC(=O)Cc4ccc(F)cc4)cc3)cn2n1 [Example 12.11, 4-{[6-(4-{[(4-fluorophenyl)-acetyl]amino}phenyl)[1,2,4]triazolo[1,5-a]pyridin-2-yl]amino}-N-(3-fluoro-propyl)-3-methoxybenzamide]
IC50 (Mps-1 kinase [2]): 1.2 nM
IC50 (Mps-1 kinase [1]): ≤ 1 nM

SMILES: COc1cc(C(C)(C)O)ccc1Nc1nc2ccc(-c3ccc(C(=O)NCc4ccc(F)cc4)c(OC)c3)cn2n1 [Example 12.81, N-(4-fluorobenzyl)-4-(2-{[4-(2-hydroxypropan-2-yl)-2-methoxyphenyl]amino}-[1,2,4]triazolo[1,5-a]pyridin-6-yl)-2-methoxybenzamide]
IC50 (Mps-1 kinase [2]): 7.3 nM
IC50 (Mps-1 kinase [1]): ≤ 1 nM

SMILES: CCN(Cc1ccc(Nc2nc3ccc(-c4ccc(NC(=O)Cc5ccc(F)cc5)cc4)cn3n2)c(OC)c1)C(C)(C)CO [Example 12.16, N-(4-{2-[(4-{[ethyl(1-hydroxy-2-methylpropan-2-yl)amino]methyl}-2-methoxyphenyl)amino]-[1,2,4]triazolo[1,5-a]pyridin-6-yl}phenyl)-2-(4-fluorophenyl)acetamide]
IC50 (Mps-1 kinase [2]): ≤ 1 nM
IC50 (Mps-1 kinase [1]): ≤ 1 nM

SMILES: CC(C)S(=O)(=O)c1ccc(Nc2nc3ccc(-c4ccc(C(=O)NCc5ccc(F)cc5)cc4)cn3n2)c(OC(F)F)c1 [Example 12.62, 4-(2-{[2-(difluoromethoxy)-4-(propan-2-ylsulfonyl)-phenyl]amino}[1,2,4]-triazolo[1,5-a]pyridin-6-yl)-N-(4-fluorobenzyl)-benzamide]
IC50 (Mps-1 kinase [2]): 3.5 nM
IC50 (Mps-1 kinase [1]): ≤ 1 nM

SMILES: Cc1cc(-c2ccc3nc(Nc4ccc(S(C)(=O)=O)cc4OCC(F)(F)F)nn3c2)ccc1C(=O)NCc1ccc(F)cc1 [Example 04.2, N-(4-fluorobenzyl)-2-methyl-4-(2-{[4-(methylsulfonyl)-2-(2,2,2-trifluoro-ethoxy)phenyl]amino}[1,2,4]triazolo[, 5-α]pyridin-6-yl)benzamide]
IC50 (Mps-1 kinase [2]): 15 nM
IC50 (Mps-1 kinase [1]): ≤ 1 nM

SMILES: CCN(C)C(=O)c1ccc(Nc2nc3ccc(-c4ccc(NC(=O)Cc5ccc(F)cc5)cc4)cn3n2)c(OC)c1 [Example 12.06, N-ethyl-4-{[6-(4-{[(4-fluorophenyl)acetyl]amino}-phenyl)[1,2,4]triazolo[1,5-a]pyridin-2-yl]amino}-3-methoxy-N-methyl-benzamide]
IC50 (Mps-1 kinase [2]): ≤ 1 nM
IC50 (Mps-1 kinase [1]): ≤ 1 nM

SMILES: Cc1cc(C(N)=O)ccc1Nc1nc2ccc(-c3ccc(C(=O)NCc4ccc(F)cc4)cc3)cn2n1 [Example 12.65, 4-[(6-{4-[(4-fluorobenzyl)-carbamoyl]phenyl}[1,2,4]triazolo [1,5-a]pyridin-2-yl)-amino]-3-methylbenzamide]
IC50 (Mps-1 kinase [2]): ≤ 1 nM
IC50 (Mps-1 kinase [1]): ≤ 1 nM

More lines, now with the values ahead:

IC50 (Mps-1 kinase [1]): ≤ 1 nM
SMILES: Cc1cc(C(=O)NCC(F)(F)F)ncc1Nc1nc2ccc(-c3ccc(NC(=O)Cc4ccc(F)cc4)cc3)cn2n1 [Example 12.38, 5-{[6-(4-{[(4-fluorophenyl)-acetyl]amino}phenyl)[1,2,4]triazolo[1,5-a]pyridin-2-yl]amino}-4-methyl-N-(2,2,2-trifluoroethyl)-pyridine-2-carboxamide]

IC50 (Mps-1 kinase [2]): 1.4 nM
IC50 (Mps-1 kinase [1]): ≤ 1 nM
SMILES: Cc1cc([S@@+](C)[O-])ccc1Nc1nc2ccc(-c3ccc(NC(=O)Cc4ccc(F)cc4)cc3)cn2n1 (stereo in doubt) [Example 12.33, 2-(4-fluorophenyl)-N-[4-(2-{[2-methyl-4-(methyl-sulfinyl)phenyl]amino}-[1,2,4]triazolo[1,5-a]pyridin-6-yl)phenyl]acetamide]

IC50 (Mps-1 kinase [2]): 1.5 nM
IC50 (Mps-1 kinase [1]): ≤ 1 nM
SMILES: COc1ccc(Nc2nc3ccc(-c4ccc(NC(=O)Cc5ccc(F)cc5)cc4)cn3n2)c(OC)c1 [Example 12.18, N-(4-{2-[(2,4-dimethoxy-phenyl)amino][1,2,4]-triazolo[1,5-a]pyridin-6-yl}phenyl)-2-(4-fluoro-phenyl)acetamide]

IC50 (Mps-1 kinase [2]): ≤ 1 nM
IC50 (Mps-1 kinase [1]): ≤ 1 nM
SMILES: O=C(NCCF)c1ccc(Nc2nc3ccc(-c4ccc(C(=O)NCc5ccc(F)cc5)cc4)cn3n2)c(OCC(F)(F)F)c1 [Example 12.59, 4-[(6-{4-[(4-fluorobenzyl)-carbamoyl]phenyl}[1,2,4]triazolo [1,5-a]pyridin-2-yl)-amino]-N-(2-fluoroethyl)-3-(2,2,2-trifluoroethoxy)-benzamide]

IC50 (Mps-1 kinase [2]): 19 nM
IC50 (Mps-1 kinase [1]): ≤ 1 nM
SMILES: COc1cc(S(C)(=O)=O)ccc1Nc1nc2ccc(-c3ccc(C(=O)NCc4ccc(F)cc4)c(OC)c3)cn2n1 [Example 09.1, N-(4-fluorobenzyl)-2-methoxy-4-(2-{[2-methoxy-4-(methylsulfonyl)phenyl]-amino}[1,2,4]triazolo[1,5-α]pyridin-6-yl)benzamide]

IC50 (Mps-1 kinase [2]): 13 nM
IC50 (Mps-1 kinase [1]): ≤ 1 nM
SMILES: CCNC(=O)c1cc(C)c(Nc2nc3ccc(-c4ccc(NC(=O)Cc5ccc(F)cc5)cc4)cn3n2)cn1 [Example 12.37, N-ethyl-5-{[6-(4-{[(4-fluoro-phenyl)acetyl]amino}-phenyl)[1,2,4]triazolo[1,5-a]pyridin-2-yl]amino}-4-methylpyridine-2-carboxamide]

IC50 (Mps-1 kinase [2]): 1.9 nM
IC50 (Mps-1 kinase [1]): ≤ 1 nM
SMILES: Cc1cc(S(C)(=O)=O)ccc1Nc1nc2ccc(-c3ccc(C(=O)NCc4ccc(F)cc4)cc3)cn2n1 [Example 12.68, N-(4-fluorobenzyl)-4-(2-{[2-methyl-4-(methylsulfonyl)-phenyl]amino}[1,2,4]triazolo [1,5-a]pyridin-6-yl)-benzamide]

IC50 (Mps-1 kinase [2]): 2.1 nM
IC50 (Mps-1 kinase [1]): ≤ 1 nM
SMILES: COc1ccc(Nc2nc3ccc(-c4ccc(NC(=O)Cc5ccc(F)cc5)cc4)cn3n2)c(C)c1 [Example 12.35, 2-(4-fluorophenyl)-N-(4-{2-[(4-methoxy-2-methyl-phenyl)amino][1,2,4]-triazolo[1,5-a]pyridin-6-yl}-phenyl)acetamide]
